Results from patent publication US11596644B2, “Method for treating post-prandial hypoglycemia” (AVOLYNT, priority 2018, dated 2023).

Tests used:
[1] = target: T1, human SGLT2 (Homo sapiens, UniProt P31639); test: Inhibition of radiolabeled α-MG uptake into COS-7 cells transfected with human SGLT2 (Dixon plot); format: cell-based; conditions: α-MG 0.3 and 1 mM, read-out: inhibition constant for human SGLT2
T1 construct: expressed in transfected cells; host or cells: COS-7
T1 sequence (P31639 1-672): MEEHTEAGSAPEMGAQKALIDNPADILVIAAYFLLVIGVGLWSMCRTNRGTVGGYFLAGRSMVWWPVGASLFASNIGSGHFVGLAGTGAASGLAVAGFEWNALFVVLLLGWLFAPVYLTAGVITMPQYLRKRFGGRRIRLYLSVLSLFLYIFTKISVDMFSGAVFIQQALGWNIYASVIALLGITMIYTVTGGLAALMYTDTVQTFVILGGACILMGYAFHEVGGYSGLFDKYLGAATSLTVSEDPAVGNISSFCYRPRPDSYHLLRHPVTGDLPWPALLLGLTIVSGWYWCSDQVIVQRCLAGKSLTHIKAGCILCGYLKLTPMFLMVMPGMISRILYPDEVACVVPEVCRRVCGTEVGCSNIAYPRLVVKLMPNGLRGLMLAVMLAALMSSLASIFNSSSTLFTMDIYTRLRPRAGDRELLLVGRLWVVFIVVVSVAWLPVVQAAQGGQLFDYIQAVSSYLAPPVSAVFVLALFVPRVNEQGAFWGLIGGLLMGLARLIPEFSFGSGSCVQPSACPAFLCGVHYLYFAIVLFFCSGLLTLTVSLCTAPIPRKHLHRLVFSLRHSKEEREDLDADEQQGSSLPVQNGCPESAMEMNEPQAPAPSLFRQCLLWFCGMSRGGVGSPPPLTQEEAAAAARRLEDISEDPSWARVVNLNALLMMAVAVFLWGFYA
Procedure: (§1) Selective inhibition study. Inhibition constants (Ki) of mizagliflozin for rat and human SGLT1 and SGLT2 were determined measuring concentration-dependent effects of test compound on uptake of radiolabeled methyl-α-D-glucopyranoside (α-MG) into COS-7 cells transiently transfected with cloned SGLT1 or SGLT2. Mizagliflozin was assessed at concentrations from 1 to 30 μM and 3 to 100 μM for human and rat SGLT2, respectively. It was assessed at concentrations from 30 nM to 1 μM and 10 to 30 nM for human and rat SGLT1, respectively. α-MG test concentrations were 0.3 and 1 mM. Data were analyzed and Ki determined using Dixon plots of initial transport rates. […] Inhibition constants were also determined for human SGLT1 and SGLT2.

[2] = target: T2, rat SGLT2 (Rattus norvegicus, UniProt P53792); test: Inhibition of radiolabeled α-MG uptake into COS-7 cells transfected with rat SGLT2 (Dixon plot); format: cell-based; conditions: α-MG 0.3 and 1 mM
T2 construct: expressed in transfected cells; host or cells: COS-7
T2 sequence (P53792 1-670): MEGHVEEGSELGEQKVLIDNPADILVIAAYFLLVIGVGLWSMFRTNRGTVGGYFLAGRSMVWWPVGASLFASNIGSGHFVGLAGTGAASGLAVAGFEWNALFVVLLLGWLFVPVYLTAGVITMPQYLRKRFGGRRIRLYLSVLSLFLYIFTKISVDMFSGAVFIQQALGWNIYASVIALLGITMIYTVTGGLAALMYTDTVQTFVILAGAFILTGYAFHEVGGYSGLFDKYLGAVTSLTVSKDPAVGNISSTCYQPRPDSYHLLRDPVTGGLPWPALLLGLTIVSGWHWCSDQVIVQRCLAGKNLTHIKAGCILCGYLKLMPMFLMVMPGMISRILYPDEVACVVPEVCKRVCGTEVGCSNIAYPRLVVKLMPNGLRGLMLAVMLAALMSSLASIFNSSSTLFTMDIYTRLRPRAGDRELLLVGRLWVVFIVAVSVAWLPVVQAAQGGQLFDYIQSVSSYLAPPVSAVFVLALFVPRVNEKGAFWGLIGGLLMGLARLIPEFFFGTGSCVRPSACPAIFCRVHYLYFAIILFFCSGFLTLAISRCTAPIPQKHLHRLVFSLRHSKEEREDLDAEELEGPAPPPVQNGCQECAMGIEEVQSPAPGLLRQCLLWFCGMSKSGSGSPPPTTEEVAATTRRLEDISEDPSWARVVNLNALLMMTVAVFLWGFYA
Procedure: as §1

[3] = tested on: STZ-induced diabetic rats; test: Oral glucose tolerance test in STZ-induced diabetic rats (Example 4); format: in vivo, rat
Procedure: Study in diabetic rats using oral glucose tolerance test. Efficacy of mizagliflozin was tested in a rat model for diabetes using an oral glucose tolerance test (OGTT). Diabetic model rats were prepared by intravenous administration of STZ to induce diabetes. Seven days after STZ administration, rats were fasted for 16 hours and then given an oral loading dose of 2.0 g/kg of glucose. Mizagliflozin, or water as the vehicle control, was then administered as a single oral dose to groups of male rats (n=8/group) at doses of 0.03, 0.1, 0.3, and 1 mg/kg. Another control group was given vehicle and consisted of normal male Sprague Dawley rats that were not administrated STZ. Voglibose was also administered as a single oral dose to male rats (n=8/group) at dose levels of 0.1, 0.3 and 1 mg/kg. Blood samples were collected just prior to loading with mixed carbohydrate and at 0.5, 1, 2, 3, 4, and 6 hours after loading. Plasma glucose concentrations were determined and ΔAUC0-1 h for plasma glucose was calculated.

[4] = target: T3, human SGLT1 (Homo sapiens, UniProt P13866); test: Inhibition of radiolabeled α-MG uptake into COS-7 cells transfected with human SGLT1 (Dixon plot); format: cell-based
T3 construct: expressed in transfected cells; host or cells: COS-7
T3 sequence (P13866 1-664): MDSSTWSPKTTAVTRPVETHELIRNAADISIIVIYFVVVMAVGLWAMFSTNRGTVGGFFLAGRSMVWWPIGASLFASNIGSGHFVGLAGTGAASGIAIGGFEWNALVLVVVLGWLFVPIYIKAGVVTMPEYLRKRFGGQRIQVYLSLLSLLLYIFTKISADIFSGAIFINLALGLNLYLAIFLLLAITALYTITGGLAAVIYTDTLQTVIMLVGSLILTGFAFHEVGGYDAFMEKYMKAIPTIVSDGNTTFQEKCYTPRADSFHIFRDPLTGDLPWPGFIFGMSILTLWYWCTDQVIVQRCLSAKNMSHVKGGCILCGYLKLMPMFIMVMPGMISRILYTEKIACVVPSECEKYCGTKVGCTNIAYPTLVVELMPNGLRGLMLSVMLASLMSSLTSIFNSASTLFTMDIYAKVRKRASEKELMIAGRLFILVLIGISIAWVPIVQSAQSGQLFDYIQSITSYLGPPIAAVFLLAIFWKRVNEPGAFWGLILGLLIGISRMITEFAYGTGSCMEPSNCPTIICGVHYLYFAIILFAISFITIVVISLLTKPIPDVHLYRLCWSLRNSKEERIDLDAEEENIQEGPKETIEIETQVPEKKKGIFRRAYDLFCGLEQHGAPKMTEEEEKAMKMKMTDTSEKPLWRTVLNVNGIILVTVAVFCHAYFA
Procedure: as §1

Ki [1]: 8.17 µM
Ki [2]: 14 µM
mode of inhibition of SGLT1 (Dixon plot intersection pattern) ([4]; human SGLT1): competitive with substrate
Ki ([4]; α-MG 0.3 and 1 mM, COS-7 cells, read-out: inhibition constant for human SGLT1): 0.027 µM
SMILES: Cc1cc(OCCCNCC(C)(C)C(N)=O)ccc1Cc1c(O[C@@H]2O[C@H](CO)[C@@H](O)[C@H](O)[C@H]2O)n[nH]c1C(C)C [mizagliflozin, 3-(3-{4-[3-(β-D-glucopyranosyloxy)-5-isopropyl-1H-pyrazol-4-ylmethyl-]-3-methylphenoxy}propylamino)-2,2-dimethylpropionamide]
ED50 ([3]; Rattus norvegicus, read-out: ED50 calculated from mean ΔAUC0-1 h (% of control), glucose 2.0 g/kg, single oral dose): 0.099 mg/kg
ΔAUC0-1 h of plasma glucose versus vehicle control ([3]; glucose 2.0 g/kg): significantly lowered
